Bridge positions count the residues as written; N and C are the ends. Square brackets hold non-standard residues; d marks the D form. Peptide text beside a SMILES is read from it. * marks the point of attachment. X18 = N#Cc1ccc(-c2cc(C(=O)*)ccc2C#N)cc1; X4 = N#Cc1cccc(-c2cc(C(=O)*)ccc2C#N)c1; X23 = O=C(c1cnnc(-c2ccccc2)c1)*; X28 = O=C(c1ccc(Oc2ccccc2)nc1)*; Dab = NCC[C@H](N)C(=O)O; Dap = NC[C@H](N)C(=O)O
Experiments:
[1] = tested on: PA-1646, polymyxin-resistant clinical isolate of Pseudomonas aeruginosa; format: cell-based; conditions: PA-1646, polymyxin-resistant clinical isolate of
Method: (§1) Minimum bactericidal concentration (MBC, mg/L), minimum inhibitory concentration (MIC, mg/L), and human renal proximal tubule epithelial cell line cytotoxicity concentration 50% (hRPTEC, TC50, micromolar) for compounds of Formula I are listed in Table 2. The compounds of Formula I were tested as the corresponding trifluoroacetate salt except for Example 1 which was tested as the sulfate salt. For Table 2 below: PMB=polymyxin B as the sulfate salt (Bedford Laboratories, pharmaceutical grade); PMB1=polymyxin B1 as the trifluoroacetate salt; Nona=polymyxin B nonapeptide as the trifluoroacetate salt. PMB1 and Nona were prepared using the solid phase methodology described in the experimental section herein.
(§2) The in vitro antibacterial activity of compounds of Formula I was evaluated by MIC testing according to Clinical and Laboratory Standards Institute (CLSI). See: Clinical and Laboratory Standards Institute. Methods for Dilution Antimicrobial Susceptibility Tests for Bacteria that Grow Aerobically; Approved Standard-Eighth Edition. CLSI document M7-A8 [ISBN 1-56238-689-1]. Clinical and Laboratory Standards Institute, 940 West Valley Road, Suite 1400, Wayne, Pa. 19087-1898 USA, 2006; also Clinical and Laboratory Standards Institute. Performance Standards for Antimicrobial Susceptibility Testing; Twentieth Informational Supplement. CLSI document M100-S20 [ISBN 1-56238-716-2]. Clinical and Laboratory Standards Institute. Methods for Determining Bactericidal Activity of Antimicrobial Agents; Approved Guideline. CLSI document M26-A (ISBN 1-56238-384-1). CLSI, 940 West Valley Road, Suite 1400, Wayne, Pa. 19087-1898 USA, 1999.
PA-1646 is a polymyxin-resistant clinical isolate of Pseudomonas aeruginosa obtained from JMI labs (www.jmilabs.com);

[2] = tested on: AB-1649, polymyxin-resistant clinical isolate of Acinetobacter baumannii; format: cell-based; conditions: AB-1649, polymyxin-resistant clinical isolate of
Method: as §1, §2
(§3) The MIC determination is a standard laboratory method for evaluating the antibacterial activity of a compound. The MIC represents the lowest drug concentration that inhibits visible growth of bacteria following overnight incubation. […] Typically, the drug concentration range is broken down into 2-fold increments (e.g. 0.06 mg/L, 0.12 mg/L, 0.25 mg/L, 0.50 mg/L, 1.0 mg/L, etc.) and the various drug concentrations are all individually incubated overnight with approximately the same number of bacteria. The MIC is then determined by visually inspecting the drug effect at each concentration, and identifying the lowest drug concentration that has inhibited bacterial growth as compared to the drug free control. Typically, bacteria continue to grow at drug concentrations lower than the MIC and don't grow at concentrations at and above the MIC.
(§4) The MIC values described in Table 2 below were derived from assays wherein each test compound was evaluated in duplicate. In cases where the duplicate values varied by 0-2-fold, the lower of the two values was reported below. Generally speaking, if the duplicate values varied by more than 2-fold, the assay was considered non-valid and was repeated until the variation between duplicate runs was ≦2-fold. In line with the CLSI guidelines referred to above, both control organisms and reference compounds were utilized in each MIC assay to provide proper quality control. MIC values generated with these control organisms and reference compounds were required to fall within a defined range for the assay to be considered valid and be included herein. Those skilled in the art will recognize that MIC values can and do vary from experiment to experiment. Generally speaking, it should be recognized that MIC values often vary +/−2-fold from experiment to experiment. While a single MIC is reported for each compound and each microorganism, the reader should not conclude that each compound was only tested once. Several of the compounds were subjected to multiple tests. The data reported in Table 2 is reflective of the compounds relative activity and different MICs may have been generated on these occasions in line with the guidelines described above.
(§5) The following bacterial strains were used in these MIC determinations: […]

[3] = tested on: AB-3167, clinical isolate of Acinetobacter baumannii; format: cell-based; conditions: AB-3167, clinical isolate of
Method: as §1, §2, §3, §4, §5

[4] = tested on: PA-1646, polymyxin-resistant clinical isolate of Pseudomonas aeruginosa; format: cell-based; conditions: PA-1646, polymyxin-resistant clinical isolate of; remark: listed apart in the source
Method: as §1, §2, §3, §4, §5

[5] = tested on: Pseudomonas aeruginosa strain PA01; format: cell-based; conditions: strain
Method: as §1, §2, §3, §4, §5

[6] = tested on: AB-1649, polymyxin-resistant clinical isolate of Acinetobacter baumannii; format: cell-based; conditions: AB-1649, polymyxin-resistant clinical isolate of; remark: listed apart in the source
Method: as §1, §2
AB-1649 is a polymyxin-resistant clinical isolate of Acinetobacter baumannii obtained from JMI labs (www.jmilabs.com);

[7] = tested on: EC-1, mouse virulent strain of Escherichia coli; format: cell-based; conditions: E. coli EC-1; overnight incubation, lower of duplicate values; trifluoroacetate salt (Example 1 and PMB sulfate)
Method: as §1, §2, §3, §4
The following bacterial strains were used in these MIC determinations:
EC-1 is a mouse virulent strain of Escherichia coli.

[8] = Cytotoxicity assay (LDH release), hRPTEC; format: cell-based, human; conditions: human
Method: as §1
Human Renal Proximal Tubule Epithelial cells (hRPTEC) were obtained from Lonza (Walkersville, Md., USA) and cultured in REGM (Renal Epithelial Cell Basal Medium supplemented with human epithelial growth factor, hydrocortisone, epinephrine, insulin, triiodothyronine, transferrin, gentamycin/amphotericin-B, and fetal bovine serum). The hRPTEC cells were seeded into 96-well plates and incubated at 37° C. in 5% CO2. Following a growth period of 72 hours, cells were treated with compounds at 100, 67, 44, 30, 20 and 13 micromolar for 24 hours at 37° C. in 5% CO2. The cell supernatant was then harvested for determination of LDH (lactate dehydrogenase) production. The Cytotoxicity Detection Kit from Roche was used for the measurement of LDH activity released from damaged cells. The Toxic Concentration 50% (TC50, micromolar) values were determined for each compound and compared to the control compounds (polymyxin B was used as a positive control and polymyxin B nonapepetide was used as negative control).

Compound | PA-1646 MBC [1] [µg/mL] | AB-1649 MIC [2] [µg/mL] | AB-3167 MIC [3] [µg/mL] | PA-1646 MIC [4] [µg/mL] | PA01 MIC [5] [µg/mL] | AB-1649 MBC [6] [µg/mL] | EC-1 MIC [7] [µg/mL] | CC50 at 24 h [8] [µM]
CC(C)C[C@@H]1NC(=O)[C@@H](Cc2ccccc2)NC(=O)[C@H](CCN)NC(=O)[C@@H](NC(=O)[C@H](CN)NC(=O)[C@@H](NC(=O)[C@H](CCN)NC(=O)c2cnnc(-c3ccccc3)c2)[C@@H](C)O)CCNC(=O)[C@H]([C@@H](C)O)NC(=O)[C@H](CCN)NC(=O)[C@H](CCN)NC1=O [Example 11] (X23-[Dab]T[Dap][Dab][Dab][dF]L[Dab][Dab]T; lactam 4-C) | 8 | 2 | 0.25 | 2 | 0.25 | 4 | 0.125 | 84
CC(C)C[C@@H]1NC(=O)[C@@H](Cc2ccccc2)NC(=O)[C@H](CCN)NC(=O)[C@@H](NC(=O)[C@H](CN)NC(=O)[C@@H](NC(=O)[C@H](CCN)NC(=O)c2ccc(Oc3ccccc3)nc2)[C@@H](C)O)CCNC(=O)[C@H]([C@@H](C)O)NC(=O)[C@H](CCN)NC(=O)[C@H](CCN)NC1=O [Example 12] (X28-[Dab]T[Dap][Dab][Dab][dF]L[Dab][Dab]T; lactam 4-C) | 16 | 2 | 0.25 | 4 | 1 | 4 | 0.25 | 61
CC(C)C[C@@H]1NC(=O)[C@@H](Cc2ccccc2)NC(=O)[C@H](CCN)NC(=O)[C@@H](NC(=O)[C@H](CN)NC(=O)[C@@H](NC(=O)[C@H](CCN)NC(=O)c2ccc(C#N)c(-c3ccc(C#N)cc3)c2)[C@@H](C)O)CCNC(=O)[C@H]([C@@H](C)O)NC(=O)[C@H](CCN)NC(=O)[C@H](CCN)NC1=O [Example 13] (X18-[Dab]T[Dap][Dab][Dab][dF]L[Dab][Dab]T; lactam 4-C) | 4 | 2 | 0.25 | 2 | 0.5 | 2 | 0.25 | 58
CC(C)C[C@@H]1NC(=O)[C@@H](Cc2ccccc2)NC(=O)[C@H](CCN)NC(=O)[C@@H](NC(=O)[C@H](CN)NC(=O)[C@@H](NC(=O)[C@H](CCN)NC(=O)c2ccc(C#N)c(-c3cccc(C#N)c3)c2)[C@@H](C)O)CCNC(=O)[C@H]([C@@H](C)O)NC(=O)[C@H](CCN)NC(=O)[C@H](CCN)NC1=O [Example 14] (X4-[Dab]T[Dap][Dab][Dab][dF]L[Dab][Dab]T; lactam 4-C) | 16 | 2 | 0.5 | 4 | 0.5 | 2 | 0.5 | 43
